From patent US20150328322A1, “DRUG DELIVERY VEHICLES” (priority 2012, published 2015)

Tests used:
MLD capsid II [1] = biological target: T1, MLD capsid II (Escherichia phage T7, UniProt P03728+P19726); assay: Diffusion-driven permeation of dyes into internal cavity of MLD capsid II; format: physicochemical; conditions: entry through the gp8 portal
T1 construct: These latter capsid shells are produced during DNA packaging
Excerpt: MLD Capsid II. […] Thus, bis-ANS, ethidium, and presumably other similarly sized compounds enter MLD capsid II through the gp8 portal (see FIG. 1a).

MLD capsid II [2] = biological target: T1, MLD capsid II; assay: AUC-BD in a Nycodenz density gradient after pre-centrifugation incubation; format: physicochemical
Experimental: By use of recent technical advances, both densities and their pressure dependence have been explored by use of analytical buoyant density equilibrium sedimentation (AUC-BD) performed with a Nycodenz density gradient and a fluorescence detector. The data were analyzed with the UltraScan-III software (Demeler et al., (2012) UltraScan-III, a comprehensive analysis software for analytical ultracentrifugation experiments. The University of Texas Health Science Center at San Antonio, Dept. of Biochemistry). […] The sources of the peak sharpness are small diffusion coefficient and uniform density of phage and phage capsids. […] Fluorescence detection provides picomolar sensitivity and several orders of magnitude of dynamic range. AUC-BD is also efficient in that (1) no gradient fractionation and analysis of separate fractions is needed, (2) sample concentrations in the picomolar range are used, over 2 orders of magnitude less than what is needed for other procedures of detection, (3) 14 samples can be simultaneously run and (4) pressure and temperature dependences are determined with one set of samples by progressively changing the speed and temperature of centrifugation.
The details of the AUC-BD are the following. […] If the particle is uniform in density and its diffusion is low, then a sharp peak of fluorescence will form. […]

T7 MLD capsid II = biological target: T2, T7 MLD capsid II (Escherichia phage T7, UniProt P03728+P19726); conditions: 25° C.; FIG. 5 adapted from Khan et al. 1992; cited from earlier work
T2 construct: These latter capsid shells are produced during DNA packaging

MHD capsid II = biological target: T3, MHD capsid II (Escherichia phage T7, UniProt P19726); assay: Fluorescence (I) vs. time binding of bis-ANS to connector-free capsid; format: physicochemical; conditions: capsid II particle without connector
T3 construct: These latter capsid shells are produced during DNA packaging; made in house; host or cells: phage-infected E. coli (inferred)
Excerpt: For measuring the rate of loading of a compound in MLD capsid II, an alternative to AUC-BD is usually needed for reasons of efficiency of time and cost. Total fluorescence (/) has been used to determine the rate of loading for bis-ANS, because bis-ANS undergoes fluorescence enhancement when it binds to hydrophobic areas of proteins, including several internal T7 proteins (gps8, gps15, gps16)—the T7 proteins bound were identified by ultraviolet light-induced, covalent cross-linking to bis-ANS after binding. The value of I vs. time at 25° C. is plotted in FIG. 5 (adapted from Khan et al., Biophys. J. 1992, 63:1286-1292), during incubation of bis-ANS with T7 MLD capsid II and also the mature phage T7 and a T7 deletion mutant, C5-LG3. Binding to the exterior of the capsid was so rapid that it was complete before the first measurement. […] Thus, the loading rate is simply observed by measuring I vs. time and subtracting the initial signal. […] MLD capsid II-bound bis-ANS fluorescence is quenched by incubation with ethidium cation.

MLD capsid II [3] = biological target: T1, MLD capsid II; assay: Buoyant density after incubation with sodium iothalamate; format: physicochemical; conditions: 25° C.; loads, but very slowly
Excerpt: Assays for Loading. To assay for diffusion-driven loading of a compound in the cavity of MLD capsid II, the most direct method is to perform buoyant density equilibrium centrifugation in a non-ionic density gradient of either Metrizamide (mw=789) or the closely related compound, Nycodenz (mw=821). If a compound enters MLD capsid II, the density changes after loading. Most dyes and drugs would, if loaded, cause the density of MLD capsid II to increase. The reason is that most dyes and drugs are denser than water and a loaded dye or drug molecule replaces internal MLD capsid II water. The exceptionally high hydration of MLD capsid II causes the density of MLD capsid II to be extremely low, typically between 1.08 and 1.12 g/ml, decreasing with increasing centrifugation speed, i.e., with increasing pressure (unpublished observations of the laboratories of Borries Demeler and Philip Serwer).
As the temperature decreases, the loading rate is expected to decrease, eventually to zero at a critical temperature. The critical temperature is expected to decrease as the molecular weight of the compound loaded decreases. The borderline for loading MLD capsid II at 25° C. is somewhat higher than 612, based on the fact that iothalamate anion (mw =612) loads, but very slowly (>19 hours), as determined by the buoyant density after incubation with sodium iothalamate. […]

CC(=O)Nc1c(I)c(C(=O)N[C@H]2C(O)O[C@H](CO)[C@@H](O)[C@@H]2O)c(I)c(N(C)C(C)=O)c1I (some centres unmarked) [Metrizamide]
diffusion into the internal cavity of MLD capsid II (MLD capsid II [1]): never been observed to detectably diffuse into MLD capsid II

CC(=O)N(CC(O)CO)c1c(I)c(C(=O)NCC(O)CO)c(I)c(C(=O)NCC(O)CO)c1I (centres unmarked) [Nycodenz]
entry into MLD capsid II (MLD capsid II [2]; pre-centrifugation incubation at 61° C. and 68° C., conversion to high-density particle, shell intact): does enter
entry into MLD capsid II (MLD capsid II [2]; pre-centrifugation incubation at temperatures as high as 54° C.): does not enter MLD capsid II

O=S(=O)(O)c1cccc2c(-c3ccc(Nc4ccccc4)c4c(S(=O)(=O)O)cccc34)ccc(Nc3ccccc3)c12 [bis-ANS, 4,4′-dianilino-1,1′-binaphthyl-5,5′-disulfonic acid]
diffusion into the internal cavity of MLD capsid II (MLD capsid II [1]): diffuse into the internal cavity of MLD capsid II (over hours)
time of bis-ANS binding to the interior (loading) (T7 MLD capsid II): several hours
bis-ANS binding kinetics (MHD capsid II): Only rapid (effectively instantaneous) binding

CC[n+]1c(-c2ccccc2)c2cc(N)ccc2c2ccc(N)cc21 [ethidium]
diffusion into the internal cavity of MLD capsid II (MLD capsid II [1]): diffuse into the internal cavity of MLD capsid II (over hours)

CNC(=O)c1c(I)c(NC(C)=O)c(I)c(C(=O)O)c1I [iothalamate]
loading time (MLD capsid II [3]): > 19 h
